From ChEMBL document CHEMBL4052718, “Stereospecific inhibition of nitric oxide production in macrophage cells by flavanonols: Synthesis and the structure-activity relationship. Part 2” (Bioorg Med Chem, 2017)

How the values were obtained:
[1] = system: RAW264.7; test: Inhibition of LPS-stimulated nitric oxide production in […] cells at 100 uM pretreated for 2 hrs followed by LPS-stimulation after 16 hrs by Griess assay relative to control; assay type: functional; settings: Mus musculus
[2] = system: RAW264.7; test: Cytotoxicity against LPS-stimulated […] cells assessed as reduction in cell viability at 100 uM pretreated for 2 hrs followed by LPS-stimulation after 16 hrs by alamar blue assay; assay type: cell-based; settings: raw264.7, 16 h
[3] = Cytotoxicity against LPS-stimulated […] cells assessed as cell viability pretreated for 2 hrs followed by LPS-stimulation after 16 hrs by alamar blue assay relative to control; assay type: cell-based; set-up: concentration or dose not given beside the values; settings: LPS-stimulated RAW264.7 cells; read-out: Activity
[4] = system: RAW264.7; test: Inhibition of LPS-stimulated nitric oxide production in […] cells pretreated for 2 hrs followed by LPS-stimulation after 16 hrs by Griess assay; assay type: functional, cell-based; settings: Mus musculus

| IC50 [4] [µM] | SMILES | inhibition at 100 µM [1] [%] | Activity [2] | viability at 16 h [3] [%] |
| --- | --- | --- | --- | --- |
| – | COc1cc(OC)c2c(c1)O[C@H](c1cccc(O)c1O)[C@@H](O)C2=O | 70 | – | – |
| 70.7 | O=C1c2ccc(O)cc2O[C@H](c2cccc(O)c2O)[C@H]1O | 70 | Non-Toxic | ≥ 100 |
| 30.3 | COc1ccc2c(c1)O[C@@H](c1cccc(O)c1O)[C@H](O)C2=O | – | Non-Toxic | ≥ 100 |
| 24.6 | COc1ccc2c(c1)O[C@H](c1cccc(O)c1O)[C@@H](O)C2=O | – | Non-Toxic | ≥ 100 |
| 17 | O=C1c2ccc(O)c(O)c2O[C@H](c2cccc(O)c2O)[C@H]1O | 95 | Non-Toxic | ≥ 100 |
| > 100 | COc1ccc2c(c1)C(=O)[C@H](O)[C@@H](c1cccc(O)c1O)O2 | – | Non-Toxic | ≥ 100 |
| 77.7 | O=C1c2c(O)cccc2O[C@H](c2cccc(O)c2O)[C@H]1O | – | Non-Toxic | ≥ 100 |
| > 100 | O=C1c2c(O)cccc2O[C@@H](c2cccc(O)c2O)[C@@H]1O | – | Non-Toxic | ≥ 100 |
| 49.7 | COc1ccc2c(c1O)O[C@H](c1cccc(O)c1O)[C@@H](O)C2=O | 93 | Non-Toxic | ≥ 100 |
| > 100 | O=C1c2cc(O)ccc2O[C@@H](c2cccc(O)c2O)[C@@H]1O | – | Non-Toxic | ≥ 100 |
| 50.3 | COc1cc2c(cc1OC)C(=O)[C@H](O)[C@@H](c1cccc(O)c1O)O2 | 93 | Non-Toxic | ≥ 100 |
| > 100 | COc1ccc2c(c1)C(=O)[C@@H](O)[C@H](c1cccc(O)c1O)O2 | – | Non-Toxic | ≥ 100 |
| 88.5 | COc1ccc2c(c1O)O[C@@H](c1cccc(O)c1O)[C@H](O)C2=O | – | Non-Toxic | ≥ 100 |
| > 100 | O=C1c2ccc(O)cc2O[C@@H](c2cccc(O)c2O)[C@@H]1O | – | Non-Toxic | ≥ 100 |
| > 100 | O=C1c2ccccc2O[C@H](c2cccc(O)c2O)[C@H]1O | – | Non-Toxic | ≥ 100 |
| > 100 | O=C1c2ccccc2O[C@@H](c2cccc(O)c2O)[C@@H]1O | – | Non-Toxic | ≥ 100 |
| > 100 | O=C1c2cc(O)ccc2O[C@H](c2cccc(O)c2O)[C@H]1O | – | Non-Toxic | ≥ 100 |
| > 100 | COc1cc2c(cc1OC)C(=O)[C@@H](O)[C@H](c1cccc(O)c1O)O2 | – | Non-Toxic | ≥ 100 |
| > 100 | O=C1c2ccc(O)c(O)c2O[C@@H](c2cccc(O)c2O)[C@@H]1O | 0 | Non-Toxic | ≥ 100 |
| 31.8 | Cc1ccc2c(c1)OC(c1cccc(O)c1O)C(O)C2=O (racemic) | – | Non-Toxic | ≥ 100 |
| 57.6 | COc1cc(OC)c2c(c1)OC(c1cccc(O)c1O)C(O)C2=O (racemic) | 58 | Non-Toxic | ≥ 100 |
| 45.3 | Cc1ccc2c(c1)C(=O)C(O)C(c1cccc(O)c1O)O2 (racemic) | – | Non-Toxic | ≥ 100 |
| 20.7 | Cc1cc2c(cc1C)C(=O)C(O)C(c1cccc(O)c1O)O2 (racemic) | – | Non-Toxic | ≥ 100 |
